In the kinase profiling compilation of Christmann-Franck et al. (2016):
pKd: −log10 of the molar value.

Key:
Assay in all cases: KINOMEscan competition binding
ALK (human) = ALK (human) (UniProt Q9UM73)
CDK17 (human) = CDK17 (human) (UniProt Q00537)
CDK9 (human) = CDK9 (human) (UniProt P50750)
CHEK2 (human) = CHEK2 (human) (UniProt O96017)
CIT (human) = CIT (human) (UniProt O14578)
CLK3 (human) = CLK3 (human) (UniProt P49761)
CLK4 (human) = CLK4 (human) (UniProt Q9HAZ1)
CSNK1G2 (human) = CSNK1G2 (human) (UniProt P78368)
DDR2 (human) = DDR2 (human) (UniProt Q16832)
[1] = system: EGFR (human), P00533 [746-750 del]
Chain of EGFR (human), P00533 [746-750 del] (P00533 whole entry, looked up, stated change not applied): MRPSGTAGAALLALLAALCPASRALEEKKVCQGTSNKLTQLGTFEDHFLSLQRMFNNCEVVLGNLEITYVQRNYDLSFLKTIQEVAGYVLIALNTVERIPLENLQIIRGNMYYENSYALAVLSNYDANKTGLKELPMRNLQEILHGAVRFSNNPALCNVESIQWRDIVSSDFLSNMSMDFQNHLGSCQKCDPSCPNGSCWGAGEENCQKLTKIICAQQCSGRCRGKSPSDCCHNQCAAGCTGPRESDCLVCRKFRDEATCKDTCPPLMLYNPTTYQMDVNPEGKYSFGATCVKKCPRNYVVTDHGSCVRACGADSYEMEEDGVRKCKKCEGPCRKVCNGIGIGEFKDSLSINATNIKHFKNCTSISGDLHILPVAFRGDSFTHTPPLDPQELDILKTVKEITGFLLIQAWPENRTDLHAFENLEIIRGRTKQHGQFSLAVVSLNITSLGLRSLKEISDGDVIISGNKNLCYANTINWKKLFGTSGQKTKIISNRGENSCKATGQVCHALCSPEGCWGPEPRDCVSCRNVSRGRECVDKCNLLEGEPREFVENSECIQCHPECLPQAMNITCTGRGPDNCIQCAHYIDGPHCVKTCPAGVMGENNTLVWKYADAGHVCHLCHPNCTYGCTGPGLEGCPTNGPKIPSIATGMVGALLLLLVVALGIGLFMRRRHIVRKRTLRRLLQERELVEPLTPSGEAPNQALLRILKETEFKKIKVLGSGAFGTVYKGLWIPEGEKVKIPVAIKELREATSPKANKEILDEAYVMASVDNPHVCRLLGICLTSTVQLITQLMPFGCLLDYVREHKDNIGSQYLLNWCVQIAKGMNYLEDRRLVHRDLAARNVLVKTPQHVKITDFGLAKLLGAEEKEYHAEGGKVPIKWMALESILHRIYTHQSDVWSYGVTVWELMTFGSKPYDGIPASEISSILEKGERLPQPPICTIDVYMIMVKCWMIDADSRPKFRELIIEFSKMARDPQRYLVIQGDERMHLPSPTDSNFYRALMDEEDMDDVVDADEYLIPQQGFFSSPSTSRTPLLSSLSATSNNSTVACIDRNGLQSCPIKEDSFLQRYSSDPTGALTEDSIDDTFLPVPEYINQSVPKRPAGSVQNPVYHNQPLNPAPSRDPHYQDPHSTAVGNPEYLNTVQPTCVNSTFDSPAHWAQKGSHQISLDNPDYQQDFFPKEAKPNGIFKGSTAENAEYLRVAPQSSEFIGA

ERN1 (human) = ERN1 (human) (UniProt O75460)
FLT3 (human) = FLT3 (human) (UniProt P36888)
[2] = system: FLT3 (human), P36888 [N841I]
HUNK (human) = HUNK (human) (UniProt P57058)
INSR (human) = INSR (human) (UniProt P06213)
MAP3K13 (human) = MAP3K13 (human) (UniProt O43283)
MAP4K2 (human) = MAP4K2 (human) (UniProt Q12851)
MAPK10 (human) = MAPK10 (human) (UniProt P53779)
MAPK12 (human) = MAPK12 (human) (UniProt P53778)
MAPK3 (human) = MAPK3 (human) (UniProt P27361)
MARK2 (human) = MARK2 (human) (UniProt Q7KZI7)
MARK4 (human) = MARK4 (human) (UniProt Q96L34)
NEK3 (human) = NEK3 (human) (UniProt P51956)
NEK6 (human) = NEK6 (human) (UniProt Q9HC98)
Chain of NEK6 (human) (Q9HC98 whole entry, looked up): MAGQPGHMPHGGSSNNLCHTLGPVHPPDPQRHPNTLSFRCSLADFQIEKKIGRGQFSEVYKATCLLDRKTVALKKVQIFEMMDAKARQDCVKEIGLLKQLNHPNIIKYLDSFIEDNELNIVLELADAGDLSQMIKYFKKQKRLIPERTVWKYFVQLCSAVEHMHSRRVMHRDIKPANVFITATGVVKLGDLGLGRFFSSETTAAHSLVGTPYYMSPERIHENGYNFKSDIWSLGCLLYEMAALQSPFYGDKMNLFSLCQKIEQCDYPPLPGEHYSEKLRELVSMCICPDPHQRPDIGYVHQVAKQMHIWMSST

NIM1 (human) = NIM1 (human) (UniProt Q8IY84)
Chain of NIM1 (human) (Q8IY84 whole entry, looked up): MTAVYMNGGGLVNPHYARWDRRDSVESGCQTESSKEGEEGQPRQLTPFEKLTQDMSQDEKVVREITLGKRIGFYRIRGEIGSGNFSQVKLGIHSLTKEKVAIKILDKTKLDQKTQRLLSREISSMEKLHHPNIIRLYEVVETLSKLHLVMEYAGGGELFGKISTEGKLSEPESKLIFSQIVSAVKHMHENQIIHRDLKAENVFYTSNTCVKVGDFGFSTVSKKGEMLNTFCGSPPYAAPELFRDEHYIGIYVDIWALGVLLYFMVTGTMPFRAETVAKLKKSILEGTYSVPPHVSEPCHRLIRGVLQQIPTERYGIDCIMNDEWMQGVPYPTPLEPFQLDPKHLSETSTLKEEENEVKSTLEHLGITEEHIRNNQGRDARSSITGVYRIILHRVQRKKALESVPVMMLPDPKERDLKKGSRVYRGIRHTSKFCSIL

NUAK2 (human) = NUAK2 (human) (UniProt Q9H093)
PAK7 (human) = PAK7 (human) (UniProt Q9P286)
PDGFRB (human) = PDGFRB (human) (UniProt P09619)
Chain of PDGFRB (human) (P09619 whole entry, looked up): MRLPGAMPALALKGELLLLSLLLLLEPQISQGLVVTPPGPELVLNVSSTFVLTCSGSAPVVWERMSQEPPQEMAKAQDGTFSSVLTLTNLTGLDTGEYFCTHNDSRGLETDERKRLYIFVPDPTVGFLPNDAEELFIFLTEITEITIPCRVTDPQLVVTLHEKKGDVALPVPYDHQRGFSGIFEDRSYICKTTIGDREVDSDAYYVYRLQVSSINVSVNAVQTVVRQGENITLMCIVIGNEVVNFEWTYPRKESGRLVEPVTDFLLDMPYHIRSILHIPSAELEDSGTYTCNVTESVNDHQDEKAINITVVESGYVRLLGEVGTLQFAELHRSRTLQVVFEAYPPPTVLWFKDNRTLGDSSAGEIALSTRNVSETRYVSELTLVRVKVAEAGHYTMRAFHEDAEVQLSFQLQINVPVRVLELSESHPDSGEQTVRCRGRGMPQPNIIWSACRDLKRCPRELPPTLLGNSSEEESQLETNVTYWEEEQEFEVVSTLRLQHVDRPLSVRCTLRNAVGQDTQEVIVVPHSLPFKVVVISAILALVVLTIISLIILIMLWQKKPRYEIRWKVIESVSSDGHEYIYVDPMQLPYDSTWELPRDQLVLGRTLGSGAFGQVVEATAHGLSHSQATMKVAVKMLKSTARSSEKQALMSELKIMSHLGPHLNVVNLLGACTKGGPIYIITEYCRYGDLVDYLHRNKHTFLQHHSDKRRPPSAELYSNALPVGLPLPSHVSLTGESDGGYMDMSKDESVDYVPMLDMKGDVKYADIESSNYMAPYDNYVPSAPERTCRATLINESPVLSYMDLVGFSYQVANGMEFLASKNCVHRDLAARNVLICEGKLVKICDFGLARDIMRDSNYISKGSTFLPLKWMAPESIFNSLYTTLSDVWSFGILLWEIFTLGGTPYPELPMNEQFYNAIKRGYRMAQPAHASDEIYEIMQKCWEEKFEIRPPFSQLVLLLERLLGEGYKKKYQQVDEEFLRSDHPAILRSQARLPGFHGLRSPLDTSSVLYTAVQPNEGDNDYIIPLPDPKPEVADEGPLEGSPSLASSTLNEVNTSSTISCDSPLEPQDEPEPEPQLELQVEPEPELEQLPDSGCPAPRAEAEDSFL

PIK3C2B (human) = PIK3C2B (human) (UniProt O00750)
[3] = system: PIK3CA (human), P42336 [E545K]
PIK3CB (human) = PIK3CB (human) (UniProt P42338)
PKMYT1 (human) = PKMYT1 (human) (UniProt Q99640)
PKN1 (human) = PKN1 (human) (UniProt Q16512)
PRKD1 (human) = PRKD1 (human) (UniProt Q15139)
PRPF4B (human) = PRPF4B (human) (UniProt Q13523)
ROS1 (human) = ROS1 (human) (UniProt P08922)
RPS6KA6 KD1 (human) = RPS6KA6 KD1 (human) (UniProt Q9UK32)
Chain of RPS6KA6 KD1 (human) (Q9UK32 whole entry, looked up): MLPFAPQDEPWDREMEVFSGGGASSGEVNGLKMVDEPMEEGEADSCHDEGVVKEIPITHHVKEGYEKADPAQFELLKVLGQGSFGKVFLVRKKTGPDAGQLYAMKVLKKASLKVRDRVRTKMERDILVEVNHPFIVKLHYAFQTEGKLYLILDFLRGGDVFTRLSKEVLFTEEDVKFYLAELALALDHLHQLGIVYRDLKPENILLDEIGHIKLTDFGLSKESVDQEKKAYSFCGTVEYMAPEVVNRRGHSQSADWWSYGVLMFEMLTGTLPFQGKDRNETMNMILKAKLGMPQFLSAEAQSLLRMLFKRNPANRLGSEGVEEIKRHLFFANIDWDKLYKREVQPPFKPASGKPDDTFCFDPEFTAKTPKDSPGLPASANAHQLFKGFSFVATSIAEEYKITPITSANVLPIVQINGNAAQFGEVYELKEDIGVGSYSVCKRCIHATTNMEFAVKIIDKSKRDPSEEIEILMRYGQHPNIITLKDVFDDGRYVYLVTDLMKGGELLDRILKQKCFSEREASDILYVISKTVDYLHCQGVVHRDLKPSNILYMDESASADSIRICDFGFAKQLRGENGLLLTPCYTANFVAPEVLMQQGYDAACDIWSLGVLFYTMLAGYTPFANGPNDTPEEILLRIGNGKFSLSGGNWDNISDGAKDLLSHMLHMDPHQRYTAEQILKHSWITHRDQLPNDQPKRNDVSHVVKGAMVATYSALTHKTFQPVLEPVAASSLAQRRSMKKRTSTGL

RPS6KB1 (human) = RPS6KB1 (human) (UniProt P23443)
SGK3 (human) = SGK3 (human) (UniProt Q96BR1)
Chain of SGK3 (human) (Q96BR1 whole entry, looked up): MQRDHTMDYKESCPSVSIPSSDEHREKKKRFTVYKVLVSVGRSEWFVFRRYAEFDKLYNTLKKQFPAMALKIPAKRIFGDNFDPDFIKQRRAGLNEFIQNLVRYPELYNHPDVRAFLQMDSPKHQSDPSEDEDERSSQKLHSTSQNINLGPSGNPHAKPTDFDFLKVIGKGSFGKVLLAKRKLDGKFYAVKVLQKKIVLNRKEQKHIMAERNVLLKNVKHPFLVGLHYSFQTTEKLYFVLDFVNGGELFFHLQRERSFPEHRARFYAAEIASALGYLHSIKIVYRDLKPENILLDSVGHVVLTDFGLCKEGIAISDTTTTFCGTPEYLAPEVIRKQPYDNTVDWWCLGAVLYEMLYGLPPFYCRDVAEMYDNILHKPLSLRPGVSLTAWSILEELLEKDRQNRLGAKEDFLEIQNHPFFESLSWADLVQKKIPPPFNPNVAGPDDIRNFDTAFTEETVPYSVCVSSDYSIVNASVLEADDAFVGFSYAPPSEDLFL

STK11 (human) = STK11 (human) (UniProt Q15831)
Chain of STK11 (human) (Q15831 whole entry, looked up): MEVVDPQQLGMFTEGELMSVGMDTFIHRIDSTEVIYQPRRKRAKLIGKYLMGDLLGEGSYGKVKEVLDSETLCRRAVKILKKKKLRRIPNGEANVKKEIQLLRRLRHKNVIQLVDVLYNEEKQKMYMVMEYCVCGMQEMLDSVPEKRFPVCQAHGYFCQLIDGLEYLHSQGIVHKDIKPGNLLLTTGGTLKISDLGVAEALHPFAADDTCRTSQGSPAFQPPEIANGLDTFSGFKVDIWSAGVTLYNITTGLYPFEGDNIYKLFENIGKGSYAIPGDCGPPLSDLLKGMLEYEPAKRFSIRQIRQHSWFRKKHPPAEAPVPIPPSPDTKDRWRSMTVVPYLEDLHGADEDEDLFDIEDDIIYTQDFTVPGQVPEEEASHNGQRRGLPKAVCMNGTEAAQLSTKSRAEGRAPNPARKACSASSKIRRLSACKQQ

STK38L (human) = STK38L (human) (UniProt Q9Y2H1)
STK39 (human) = STK39 (human) (UniProt Q9UEW8)
[4] = target: TYK2 JH1 catalytic (human) (UniProt P29597)

CN(C)C/C=C/C(=O)Nc1cccc(C(=O)Nc2ccc(Nc3nccc(-c4c(-c5ccccc5)nn5ccccc45)n3)cc2)c1
kinase still bound, per cent of control (ALK (human); compound 1.0 µM): 100%
kinase still bound, per cent of control (CDK17 (human); compound 1.0 µM): 100%
kinase still bound, per cent of control (CDK9 (human); compound 1.0 µM): 100%
kinase still bound, per cent of control (CHEK2 (human); compound 1.0 µM): 100%
pKd (CIT (human)): 7.02
kinase still bound, per cent of control (CIT (human); compound 1.0 µM): 0.3%
kinase still bound, per cent of control (CLK3 (human); compound 1.0 µM): 100%
kinase still bound, per cent of control (CLK4 (human); compound 1.0 µM): 100%
kinase still bound, per cent of control (CSNK1G2 (human); compound 1.0 µM): 0.85%
kinase still bound, per cent of control (DDR2 (human); compound 1.0 µM): 9%
kinase still bound, per cent of control ([1]; compound 1.0 µM): 0%
kinase still bound, per cent of control (ERN1 (human); compound 1.0 µM): 100%
kinase still bound, per cent of control (FLT3 (human); compound 1.0 µM): 1%
kinase still bound, per cent of control ([2]; compound 1.0 µM): 4%
kinase still bound, per cent of control (HUNK (human); compound 1.0 µM): 67%
kinase still bound, per cent of control (INSR (human); compound 1.0 µM): 100%
kinase still bound, per cent of control (MAP3K13 (human); compound 1.0 µM): 100%
kinase still bound, per cent of control (MAP4K2 (human); compound 1.0 µM): 90%
kinase still bound, per cent of control (MAPK10 (human); compound 1.0 µM): 0%
kinase still bound, per cent of control (MAPK12 (human); compound 1.0 µM): 94%
kinase still bound, per cent of control (MAPK3 (human); compound 1.0 µM): 100%
kinase still bound, per cent of control (MARK2 (human); compound 1.0 µM): 98%
kinase still bound, per cent of control (MARK4 (human); compound 1.0 µM): 100%
kinase still bound, per cent of control (NEK3 (human); compound 1.0 µM): 99%
kinase still bound, per cent of control (NEK6 (human); compound 1.0 µM): 100%
kinase still bound, per cent of control (NIM1 (human); compound 1.0 µM): 100%
kinase still bound, per cent of control (NUAK2 (human); compound 1.0 µM): 89%
kinase still bound, per cent of control (PAK7 (human); compound 1.0 µM): 92%
kinase still bound, per cent of control (PDGFRB (human); compound 1.0 µM): 0.2%
kinase still bound, per cent of control (PIK3C2B (human); compound 1.0 µM): 100%
kinase still bound, per cent of control ([3]; compound 1.0 µM): 100%
kinase still bound, per cent of control (PIK3CB (human); compound 1.0 µM): 100%
kinase still bound, per cent of control (PKMYT1 (human); compound 1.0 µM): 100%
kinase still bound, per cent of control (PKN1 (human); compound 1.0 µM): 100%
kinase still bound, per cent of control (PRKD1 (human); compound 1.0 µM): 20%
kinase still bound, per cent of control (PRPF4B (human); compound 1.0 µM): 100%
kinase still bound, per cent of control (ROS1 (human); compound 1.0 µM): 100%
kinase still bound, per cent of control (RPS6KA6 KD1 (human); compound 1.0 µM): 91%
kinase still bound, per cent of control (RPS6KB1 (human); compound 1.0 µM): 83%
kinase still bound, per cent of control (SGK3 (human); compound 1.0 µM): 91%
kinase still bound, per cent of control (STK11 (human); compound 1.0 µM): 93%
kinase still bound, per cent of control (STK38L (human); compound 1.0 µM): 100%
kinase still bound, per cent of control (STK39 (human); compound 1.0 µM): 82%
kinase still bound, per cent of control ([4]; compound 1.0 µM): 76%

Cc1ccc(NC(=O)c2ccc(NC(=O)/C=C/CN(C)C)cc2)cc1Nc1nccc(-c2cccnc2)n1
kinase still bound, per cent of control (ALK (human); compound 10.0 µM): 100%
kinase still bound, per cent of control (CDK17 (human); compound 10.0 µM): 100%
kinase still bound, per cent of control (CDK9 (human); compound 10.0 µM): 100%
kinase still bound, per cent of control (CHEK2 (human); compound 10.0 µM): 94%
kinase still bound, per cent of control (CIT (human); compound 10.0 µM): 59%
kinase still bound, per cent of control (CLK3 (human); compound 10.0 µM): 93%
kinase still bound, per cent of control (CLK4 (human); compound 10.0 µM): 6.2%
kinase still bound, per cent of control (CSNK1G2 (human); compound 10.0 µM): 83%
kinase still bound, per cent of control (DDR2 (human); compound 10.0 µM): 0.9%
kinase still bound, per cent of control ([1]; compound 10.0 µM): 61%
kinase still bound, per cent of control (ERN1 (human); compound 10.0 µM): 98%
kinase still bound, per cent of control (FLT3 (human); compound 10.0 µM): 75%
kinase still bound, per cent of control ([2]; compound 10.0 µM): 92%
kinase still bound, per cent of control (HUNK (human); compound 10.0 µM): 25%
kinase still bound, per cent of control (INSR (human); compound 10.0 µM): 93%
kinase still bound, per cent of control (MAP3K13 (human); compound 10.0 µM): 89%
kinase still bound, per cent of control (MAP4K2 (human); compound 10.0 µM): 81%
pKd (MAPK10 (human)): 7.00
kinase still bound, per cent of control (MAPK10 (human); compound 10.0 µM): 0.25%
kinase still bound, per cent of control (MAPK12 (human); compound 10.0 µM): 94%
kinase still bound, per cent of control (MAPK3 (human); compound 10.0 µM): 100%
kinase still bound, per cent of control (MARK2 (human); compound 10.0 µM): 78%
kinase still bound, per cent of control (MARK4 (human); compound 10.0 µM): 77%
kinase still bound, per cent of control (NEK3 (human); compound 10.0 µM): 99%
kinase still bound, per cent of control (NEK6 (human); compound 10.0 µM): 44%
kinase still bound, per cent of control (NIM1 (human); compound 10.0 µM): 92%
kinase still bound, per cent of control (NUAK2 (human); compound 10.0 µM): 69%
kinase still bound, per cent of control (PAK7 (human); compound 10.0 µM): 72%
kinase still bound, per cent of control (PDGFRB (human); compound 10.0 µM): 0%
kinase still bound, per cent of control (PIK3C2B (human); compound 10.0 µM): 93%
kinase still bound, per cent of control ([3]; compound 10.0 µM): 96%
kinase still bound, per cent of control (PIK3CB (human); compound 10.0 µM): 100%
kinase still bound, per cent of control (PKMYT1 (human); compound 10.0 µM): 79%
kinase still bound, per cent of control (PKN1 (human); compound 10.0 µM): 100%
kinase still bound, per cent of control (PRKD1 (human); compound 10.0 µM): 100%
kinase still bound, per cent of control (PRPF4B (human); compound 10.0 µM): 100%
kinase still bound, per cent of control (ROS1 (human); compound 10.0 µM): 100%
kinase still bound, per cent of control (RPS6KA6 KD1 (human); compound 10.0 µM): 50%
kinase still bound, per cent of control (RPS6KB1 (human); compound 10.0 µM): 100%
kinase still bound, per cent of control (SGK3 (human); compound 10.0 µM): 99%
kinase still bound, per cent of control (STK11 (human); compound 10.0 µM): 92%
kinase still bound, per cent of control (STK38L (human); compound 10.0 µM): 100%
kinase still bound, per cent of control (STK39 (human); compound 10.0 µM): 82%
kinase still bound, per cent of control ([4]; compound 10.0 µM): 92%

CN(C)C/C=C/C(=O)Nc1cccc(C(=O)Nc2ccc(Nc3nccc(/C(C#N)=C4\Nc5ccccc5S4)n3)cc2)c1
kinase still bound, per cent of control (ALK (human); compound 1.0 µM): 100%
kinase still bound, per cent of control (CDK17 (human); compound 1.0 µM): 100%
kinase still bound, per cent of control (CDK9 (human); compound 1.0 µM): 100%
kinase still bound, per cent of control (CHEK2 (human); compound 1.0 µM): 100%
kinase still bound, per cent of control (CIT (human); compound 1.0 µM): 65%
kinase still bound, per cent of control (CLK3 (human); compound 1.0 µM): 100%
kinase still bound, per cent of control (CLK4 (human); compound 1.0 µM): 64%
kinase still bound, per cent of control (CSNK1G2 (human); compound 1.0 µM): 22%
kinase still bound, per cent of control (DDR2 (human); compound 1.0 µM): 100%
kinase still bound, per cent of control ([1]; compound 1.0 µM): 72%
kinase still bound, per cent of control (ERN1 (human); compound 1.0 µM): 100%
kinase still bound, per cent of control (FLT3 (human); compound 1.0 µM): 23%
kinase still bound, per cent of control ([2]; compound 1.0 µM): 51%
kinase still bound, per cent of control (HUNK (human); compound 1.0 µM): 99%
kinase still bound, per cent of control (INSR (human); compound 1.0 µM): 100%
kinase still bound, per cent of control (MAP3K13 (human); compound 1.0 µM): 100%
kinase still bound, per cent of control (MAP4K2 (human); compound 1.0 µM): 100%
kinase still bound, per cent of control (MAPK10 (human); compound 1.0 µM): 0.05%
kinase still bound, per cent of control (MAPK12 (human); compound 1.0 µM): 100%
kinase still bound, per cent of control (MAPK3 (human); compound 1.0 µM): 100%
kinase still bound, per cent of control (MARK2 (human); compound 1.0 µM): 100%
kinase still bound, per cent of control (MARK4 (human); compound 1.0 µM): 100%
kinase still bound, per cent of control (NEK3 (human); compound 1.0 µM): 100%
kinase still bound, per cent of control (NEK6 (human); compound 1.0 µM): 100%
kinase still bound, per cent of control (NIM1 (human); compound 1.0 µM): 86%
kinase still bound, per cent of control (NUAK2 (human); compound 1.0 µM): 100%
kinase still bound, per cent of control (PAK7 (human); compound 1.0 µM): 69%
kinase still bound, per cent of control (PDGFRB (human); compound 1.0 µM): 35%
kinase still bound, per cent of control (PIK3C2B (human); compound 1.0 µM): 96%
kinase still bound, per cent of control ([3]; compound 1.0 µM): 100%
kinase still bound, per cent of control (PIK3CB (human); compound 1.0 µM): 100%
kinase still bound, per cent of control (PKMYT1 (human); compound 1.0 µM): 100%
kinase still bound, per cent of control (PKN1 (human); compound 1.0 µM): 92%
kinase still bound, per cent of control (PRKD1 (human); compound 1.0 µM): 100%
kinase still bound, per cent of control (PRPF4B (human); compound 1.0 µM): 100%
kinase still bound, per cent of control (ROS1 (human); compound 1.0 µM): 58%
kinase still bound, per cent of control (RPS6KA6 KD1 (human); compound 1.0 µM): 100%
kinase still bound, per cent of control (RPS6KB1 (human); compound 1.0 µM): 100%
kinase still bound, per cent of control (SGK3 (human); compound 1.0 µM): 97%
kinase still bound, per cent of control (STK11 (human); compound 1.0 µM): 90%
kinase still bound, per cent of control (STK38L (human); compound 1.0 µM): 100%
kinase still bound, per cent of control (STK39 (human); compound 1.0 µM): 100%
kinase still bound, per cent of control ([4]; compound 1.0 µM): 72%
